Values joined by “and” are separate entries in the source; they are usually repeats but may differ in a detail not shown here. Equal values may be shown once.
Assay: Pilot pharmacokinetic study, single subcutaneous administration
Settings: individual animals
Procedure: All study protocols were reviewed and approved by the Covance Laboratories Institutional Animal Care and Use Committee (IACUC).
Rhesus plasma samples were stored frozen at −80 °C. For analysis, the samples were thawed, and a 50-µl aliquot of each sample was treated with 200 µl acetonitrile containing a generic internal small-molecule standard. After precipitation of the protein component, a 100-µl aliquot of the supernatant was transferred to a clean 96-well plate and was mixed with 200 µl water. A 20-μl aliquot of the above solution was then injected into a Q-Exactive high-resolution mass spectrometer (Thermo Scientific) with electrospray ionization in positive mode. Quantification was performed with a Thermo Scientific Xcalibur 4.0.27.19 using accurate masses (<5 parts per million mass error; [M + H]^+ of 958.1853 for GC-CA1 and 758.3270 for the internal standard, respectively)[22],[23]. […] Pharmacokinetic parameters, including the area under the plasma concentration–time curve from time 0 to the last quantifiable time point (AUClast), the area under the plasma concentration–time curve from time 0 to infinity (AUCinf), the maximum concentration (Cmax), the time to reach the observed peak plasma concentration (tmax) and the terminal half-life (t1/2), were determined by non-compartmental analysis using Phoenix WinNonlin 6.4 build 8.1.0.3530 software (Pharsight).

## CC(C)(C#Cc1ccc(-c2ccc(Cl)c3c(NS(=O)(=O)C4CC4)nn(CC(F)F)c23)c([C@H](Cc2cc(F)cc(F)c2)NC(=O)Cn2nc(C(F)F)c3c2C(F)(F)[C@@H]2C[C@H]32)n1)S(C)(=O)=O [GS-CA1]
100 mg/kg s.c., 0.006 weeks post dose, unit not given (Fig. 1b in nM)
  Plasma GS-CA1 level: 41.2 and 93.2
100 mg/kg s.c., 0.018 weeks post dose, unit not given
  Plasma GS-CA1 level: 240
100 mg/kg s.c., 0.047 weeks post dose, unit not given
  Plasma GS-CA1 level: 588
100 mg/kg s.c., 0.14 weeks post dose, unit not given
  Plasma GS-CA1 level: 2054
100 mg/kg s.c., 0.29 weeks post dose, unit not given
  Plasma GS-CA1 level: 2247
100 mg/kg s.c., 0.43 weeks post dose, unit not given
  Plasma GS-CA1 level: 1217
100 mg/kg s.c., 0.57 weeks post dose, unit not given
  Plasma GS-CA1 level: 649
100 mg/kg s.c., 1 week post dose, unit not given
  Plasma GS-CA1 level: 448
100 mg/kg s.c., 2 weeks post dose, unit not given
  Plasma GS-CA1 level: 254
100 mg/kg s.c., 3 weeks post dose, unit not given
  Plasma GS-CA1 level: 125
100 mg/kg s.c., 4 weeks post dose, unit not given
  Plasma GS-CA1 level: 115
100 mg/kg s.c., 5 weeks post dose, unit not given
  Plasma GS-CA1 level: 92.7
100 mg/kg s.c., 6 weeks post dose, unit not given
  Plasma GS-CA1 level: 65.1
100 mg/kg s.c., 8 weeks post dose, unit not given
  Plasma GS-CA1 level: 43.2
100 mg/kg s.c., 10 weeks post dose, unit not given
  Plasma GS-CA1 level: 23.6
100 mg/kg s.c., 12 weeks post dose, unit not given
  Plasma GS-CA1 level: 11.5
100 mg/kg s.c., 14 weeks post dose, unit not given
  Plasma GS-CA1 level: 15.5 and 6.3
100 mg/kg s.c., 16 weeks post dose, unit not given
  Plasma GS-CA1 level: 10.4 and 5.1
100 mg/kg s.c., 18 weeks post dose, unit not given
  Plasma GS-CA1 level: 10.7 and 2.4
300 mg/kg s.c., 0.006 weeks post dose, unit not given (Fig. 1b in nM)
  Plasma GS-CA1 level: 74.8 and 53.9
300 mg/kg s.c., 0.018 weeks post dose, unit not given
  Plasma GS-CA1 level: 137 and 203 and 314
300 mg/kg s.c., 0.047 weeks post dose, unit not given
  Plasma GS-CA1 level: 205 and 325 and 1054
300 mg/kg s.c., 0.14 weeks post dose, unit not given
  Plasma GS-CA1 level: 3062 and 1232 and 2737
300 mg/kg s.c., 0.29 weeks post dose, unit not given
  Plasma GS-CA1 level: 3422 and 1597 and 1786
300 mg/kg s.c., 0.43 weeks post dose, unit not given
  Plasma GS-CA1 level: 1984 and 1345
300 mg/kg s.c., 0.57 weeks post dose, unit not given
  Plasma GS-CA1 level: 1342 and 1428
300 mg/kg s.c., 1 week post dose, unit not given
  Plasma GS-CA1 level: 938 and 936
300 mg/kg s.c., 2 weeks post dose, unit not given
  Plasma GS-CA1 level: 1435 and 680 and 798
300 mg/kg s.c., 3 weeks post dose, unit not given
  Plasma GS-CA1 level: 467 and 939 and 816
300 mg/kg s.c., 4 weeks post dose, unit not given
  Plasma GS-CA1 level: 461 and 659
300 mg/kg s.c., 5 weeks post dose, unit not given
  Plasma GS-CA1 level: 226 and 377 and 512
300 mg/kg s.c., 6 weeks post dose, unit not given
  Plasma GS-CA1 level: 291 and 348 and 602
300 mg/kg s.c., 8 weeks post dose, unit not given
  Plasma GS-CA1 level: 243 and 396
300 mg/kg s.c., 10 weeks post dose, unit not given
  Plasma GS-CA1 level: 116 and 206
300 mg/kg s.c., 12 weeks post dose, unit not given
  Plasma GS-CA1 level: 56.5 and 98.6 and 116
300 mg/kg s.c., 14 weeks post dose, unit not given
  Plasma GS-CA1 level: 66.9 and 71.3
300 mg/kg s.c., 16 weeks post dose, unit not given
  Plasma GS-CA1 level: 19.3 and 37.8 and 64.2
300 mg/kg s.c., 18 weeks post dose, unit not given
  Plasma GS-CA1 level: 10 and 26.3 and 22.2
male, Indian origin, rhesus monkey, in vivo, 100 mg/kg, Plasma GS-CA1 level, 100 mg/kg s.c., 0.018 weeks post dose, unit inferred
  concentration at 0.018 weeks: 0.202 µM
male, Indian origin, rhesus monkey, in vivo, 100 mg/kg, Plasma GS-CA1 level, 100 mg/kg s.c., 0.047 weeks post dose, unit inferred
  concentration at 0.047 weeks: 0.436 µM
male, Indian origin, rhesus monkey, in vivo, 100 mg/kg, Plasma GS-CA1 level, 100 mg/kg s.c., 0.14 weeks post dose, unit inferred
  concentration at 0.14 weeks: 1.21 µM
male, Indian origin, rhesus monkey, in vivo, 100 mg/kg, Plasma GS-CA1 level, 100 mg/kg s.c., 0.29 weeks post dose, unit inferred
  concentration at 0.29 weeks: 1.16 µM
male, Indian origin, rhesus monkey, in vivo, 100 mg/kg, Plasma GS-CA1 level, 100 mg/kg s.c., 0.43 weeks post dose, unit inferred
  concentration at 0.43 weeks: 0.91 µM
